Test results taken from ChEMBL document CHEMBL1150996, “Syntheses and exploration of new biological activities in ethyl 6/7-substituted and 6, 7-disubstituted quinolin-4-one-3-carboxylates” (1996).
In brackets after ≈: the same amount, converted by molar mass. Activity calls are given as the source filed them. The calls are words filed in the database; no cut-off is given here.

How the values were obtained:
[1] = tested on: Plasmodium yoelii; experiment: (§1) Compound was evaluated for uM; design: concentration or dose not given beside the values; details: concentration not given here
[2] = tested on: Trichophyton benhamiae; experiment: In vitro minimum inhibitory concentration against Trichophyton mentagrophytes; type: functional, Arthroderma benhamiae
[3] = tested on: Plasmodium yoelii; experiment: (§2) Compound was evaluated for uM concentration.; details: concentration not given here
[4] = tested on: Plasmodium yoelii; experiment: as §1; details: concentration not given here
[5] = tested on: Plasmodium yoelii; experiment: Compound was evaluated for uM: No effect
[6] = tested on: Plasmodium yoelii; experiment: Compound was evaluated for anti-heme polymerase activity in intact erythrocytes infected with drug resistant Plasmodium yoelii at 1.0 uM concentration.; type: cell-based
[7] = tested on: Plasmodium yoelii; experiment: as §2; details: concentration not given here; remark: listed apart in the source

SMILES | inhibition [1] [%] | MIC [2] [µg/mL] | inhibition [3] [%] | inhibition [4] [%] | inhibition [5] | inhibition [6] [%] | inhibition [7] [%]
CCOC(=O)c1cnc2cc(C3=NNC(=O)CC3)ccc2c1O | 69 | 50 (≈ 160 µM) | – | – | – | – | –
CCOC(=O)c1cnc2ccc(C3(CCC(=O)CCc4ccoc4)CCC(=O)NC3=O)cc2c1O (configuration not stated) | 82 | 50 (≈ 104 µM) | – | – | – | – | –
CCN(CC)CCCC(C)Nc1ccnc2cc(Cl)ccc12 (configuration not stated) [CHLOROQUINE] | – | 50 (≈ 156 µM) | 47 | 46 | – | – | –
CCOC(=O)c1cnc2cc(C3CCC(=O)O3)ccc2c1O (configuration not stated) | 46 | 50 (≈ 166 µM) | – | – | – | – | –
CCOC(=O)c1cnc2ccc(C3(CCC(=O)NCCC(C)C)CCC(=O)NC3=O)cc2c1O (configuration not stated) | 88 | 50 (≈ 106 µM) | – | – | – | – | –
CCOC(=O)c1cnc2cc(CO)c(O)cc2c1O | – | 50 (≈ 190 µM) | – | – | inactive | – | –
CCOC(=O)c1cnc2ccc(C3(CCC(=O)NC(C)CC)CCC(=O)NC3=O)cc2c1O (configuration not stated) | 71 | 50 (≈ 110 µM) | 42 | – | – | 68 | 17
CCOC(=O)c1cnc2ccc(C3(CCC(=O)OC)CCC(=O)NC3=O)cc2c1O (configuration not stated) | 66 | 50 (≈ 121 µM) | 40 | – | – | 62 | 11
CCCCNC(=O)CCC1(c2ccc3ncc(C(=O)OCC)c(O)c3c2)CCC(=O)NC1=O (configuration not stated) | 85 | 50 (≈ 110 µM) | – | – | – | – | –
CCOC(=O)c1cnc2ccc(C3(CCC(=O)CCc4ccc(OC)c(OC)c4)CCC(=O)NC3=O)cc2c1O (configuration not stated) | 86 | 50 (≈ 91.1 µM) | – | – | – | – | –
